# Conditions: for aqueous solubility: pH 6.8
Compound,"intrinsic clearance, human liver microsomes [mL/min/kg]","intrinsic clearance, rat liver microsomes [mL/min/kg]",MDR1-MDCK efflux ratio,aqueous solubility [µg/mL],"fraction unbound, human plasma","fraction unbound, rat plasma"
CCCn1cc(CNC(=O)CN2CCCC2)cn1,≤ 4.74,253,–,–,–,–
O[C@@H]1CO[C@H]2C[C@@H]1Nc1c(-c3ccccc3)cccc12,15,367,0.599,17,–,–
Clc1cnc(Oc2ccc3cn[nH]c3c2)nc1,12.9,27.5,–,–,–,–
C=CC(=O)N1CCC([C@@H]2CCNc3c(C(N)=O)c(-c4ccc(Oc5ccccc5)cc4)nn32)CC1,57.8,573,50.8,–,0.0931,0.0171
Cn1c(-c2n[nH]c3c2CCCC3)nnc1N1CCC2(CNC(=O)C2)C1 (configuration not stated),≤ 4.74,–,5.01,–,0.621,–
Nc1nc2ccccc2n1CCCc1ccccc1,13.4,463,0.966,27.2,–,–
Oc1ccc2nc(/C=C/c3csnn3)ccc2c1Cl,99.4,240,0.069,–,–,–
CC(/C=C/C(=O)NO)=C\[C@@H](C)C(=O)c1ccc(N(C)C)cc1,23.3,152,5.29,22.1,–,–
CN(CC(=O)NC1(C#N)CCCC1)c1ccccc1,20.3,498,0.924,46.5,–,–
CCCNC(=O)C1(NCc2cncnc2)CCCCC1,43.2,127,7.46,–,–,–
Cc1nc(C(C)C)sc1C(=O)Nc1nc(C(C)(C)C)cs1,27.8,398,0.306,11.8,–,–
O=C(NCc1cccnc1)c1sccc1-c1ccccc1,45.2,867,1.1,65.6,–,–
O=C(CSc1nccn1C1CC1)Nc1c(Cl)cc(Cl)cc1C(=O)O,41.6,204,8.29,2.43,–,–
O=C(O)Cc1nc2ccccc2[nH]1,–,–,–,10.1,–,–
CC(C)c1ccc2occ(CC(=O)O)c2c1,≤ 4.74,≤ 10.7,–,–,–,–
O=C(NCc1ccc(CO)c(F)c1)Nc1ccccc1,≤ 4.74,20.8,0.427,35.2,–,–

Compound,"intrinsic clearance, human liver microsomes [mL/min/kg]","intrinsic clearance, rat liver microsomes [mL/min/kg]",MDR1-MDCK efflux ratio,aqueous solubility [µg/mL],"fraction unbound, human plasma","fraction unbound, rat plasma"
COc1c(N)ncnc1N1CCCC(C)(C)CC1,37.2,1210,0.912,38.4,–,–
N#CCc1ccc(NC(=O)C2CC2)cc1,–,–,–,30.6,–,–
CCc1ccccc1S(=O)(=O)NCCc1cn[nH]c1,34.8,533,2.65,–,–,–
CC(C)(C)NC(=O)NCCn1nc2c(cc1=O)CCCC2,12.1,105,67,47.5,–,–
O=C(Nc1cccnc1)c1ccccc1Cc1ccccc1,33.9,461,0.612,70.5,–,–
CCN(C/C=C/c1ccc(F)cc1)Cc1nc(COC)no1,25.9,862,0.527,32,–,–
CC1(c2nnc(-c3ccc4c(c3)OCCO4)o2)CCOCC1,13.3,247,0.742,40.8,–,–
CCN(CC)CCCNc1c2c(nc3ccccc13)CCC2,–,–,–,25.4,–,–
CC(=O)N(C)[C@@H]1CO[C@@H]2CCN(C[C@]3(O)CC[C@@H](C(C)(C)C)CC3)C[C@@H]2C[C@@]1(C)O,65,276,23.5,–,–,–
CC(C)(O)[C@H]1O[C@H]2CC[C@@]3(C)[C@@](O)(CC[C@H]4Cc5c([nH]c6ccccc56)[C@@]43C)C2=CC1=O,–,–,–,0.99,–,–
CN1CCN(S(=O)(=O)c2ccc(C(F)(F)F)nc2)C(C)(C)C1,42.2,661,0.642,–,–,–
CON(C)C(=O)Cc1c(C)[nH]c2ccccc12,≤ 4.74,70.4,0.627,53,–,–
CCCNC(=O)C1(NCc2csnn2)CCCCC1,7.42,152,2.87,–,–,–
CC(C)CNc1nnc(SCc2ccncc2)s1,30.9,631,1.03,48,–,–
CN(C)C1(CNC(=O)Cn2ccc(=O)cc2)CCCCC1,5.3,16.1,0.273,–,–,–

# Other lines, results leading:
"intrinsic clearance, human liver microsomes [mL/min/kg]","intrinsic clearance, rat liver microsomes [mL/min/kg]",MDR1-MDCK efflux ratio,aqueous solubility [µg/mL],"fraction unbound, human plasma","fraction unbound, rat plasma",Compound
228,3380,0.535,40.8,–,–,Cc1ccc(-c2noc(CCC(=O)N3CCCC3(C)C)n2)cc1F
60.3,167,–,46.4,–,–,COc1ccccc1C(=O)Nc1cccc(-c2ccnc(C)n2)c1
36.5,1050,4.2,58.3,–,–,Cc1ccc(C)c2c(O)cc(CN3CC(c4ccccn4)C3)nc12
84.7,800,0.717,36.2,–,–,Fc1ccccc1CN1CCN(c2ncccn2)CC1
41.7,591,2.87,–,–,–,Cc1ccc(S(=O)(=O)N2CCC(c3nnc(-c4cccnc4)o3)C2)cc1 (configuration not stated)
68.9,121,–,–,–,–,N#Cc1cc(N2CC(CO)C2)nc2ccc(Cl)cc12
–,–,1.26,0.27,–,–,COc1ccccc1NC(=O)CSc1nc(C(C)(C)C)nc2ccccc12
153,1270,1.29,13.1,–,–,c1ccc(OCc2cc(CC3(NCc4cnc5ccccc5c4)COC3)no2)cc1
218,2800,–,–,–,–,Fc1cc(CCNc2ncnc3sccc23)c2c(c1)COCO2
42.7,1560,20,–,0.00041,0.00313,CC(C)NC(=O)COc1cccc(-c2nc(Nc3ccc4[nH]ncc4c3)c3ccccc3n2)c1
–,–,–,16.1,–,–,O=C(c1cc(Oc2cccc(F)c2)nc2ccccc12)N1CCOCC1
11.4,106,0.769,3.86,–,–,Cc1cc(C)n(-c2ccc(CNC(=O)c3ccc4c(c3)CCO4)cn2)n1
280,982,1.32,–,0.0676,0.034,CNC(=O)C1(Cc2ccc(-c3cccnc3)cc2)CCN(Cc2cccc(F)c2)C1 (configuration not stated)
18.1,394,–,–,–,–,Cc1nc(-c2cccc(C(N)=O)c2)sc1-c1ccc(F)cc1
126,827,8,10,–,–,NC(=O)c1ccccc1NC(=O)CN1CCCC(c2nc3ccccc3o2)C1 (configuration not stated)
≤ 4.74,170,–,–,–,–,CNc1ncc2cc(-c3ccc(-c4cccc(C)n4)cc3Cl)c(=O)n(C[C@H]3OC[C@H](N)CO3)c2n1
≤ 4.74,45.1,0.552,–,–,–,Cc1ccc(CCNc2ccc(C#N)nc2)cn1
963,1910,2.7,8.44,–,–,Cc1cc(-c2ccc(N)nc2)cc(C2CCN(C(=O)CCCc3ccc(F)c(C)c3)CC2)n1
18.7,103,35.5,–,–,–,Cc1cc(Nc2nnc(C)s2)cc(C2CN(C(=O)Cc3csc(C)n3)CCO2)n1 (configuration not stated)
14.4,75.7,6.69,–,–,–,Cc1cc(C)c(NC(=O)CN(C)c2ccc(C#N)nc2)c(C)c1
–,–,–,0.3,–,–,N#Cc1c(N2CCCC2)oc2nc3ccccc3nc12
9.21,254,0.871,41.4,–,–,Cc1nc(NC2(c3cccc(Cl)c3)CC2)c2c(C)noc2n1
≤ 4.74,103,0.681,45.1,–,–,Cc1nc(Cn2ncc3ccccc3c2=O)cs1
182,298,0.629,–,–,–,COc1nccnc1N1CCC(C(=O)Nc2cccc(F)c2)CC1
6.21,89.6,18,14.9,–,–,CCOC(=O)Cc1c(C)[nH]c2c(-c3ccccc3)cnn2c1=O
≤ 4.74,≤ 10.7,128,34.1,–,–,CC(C)c1noc2nc(C3CC3)cc(C(=O)N3CC[C@H](N)C3)c12
≤ 4.74,≤ 10.7,11.3,45.2,–,–,O=C(CCN1C(=O)CCC1=O)Nc1cccc2ncccc12

# Reference: the Biogen ADME set (Fang et al. 2023)
